Test results taken from patent US10414763B2 (CANCER RESEARCH TECHNOLOGY LIMITED, priority 2014, dated 2019).

Molecular target: T1, full-length human PKCι (Homo sapiens, UniProt P41743)
T1 construct: Recombinant, full-length human PKCι expressed in Sf21 insect cells is also commercially available; purchased EMD Millipore; host or cells: Sf21 insect cells (baculovirus)
T1 sequence (P41743 1-596): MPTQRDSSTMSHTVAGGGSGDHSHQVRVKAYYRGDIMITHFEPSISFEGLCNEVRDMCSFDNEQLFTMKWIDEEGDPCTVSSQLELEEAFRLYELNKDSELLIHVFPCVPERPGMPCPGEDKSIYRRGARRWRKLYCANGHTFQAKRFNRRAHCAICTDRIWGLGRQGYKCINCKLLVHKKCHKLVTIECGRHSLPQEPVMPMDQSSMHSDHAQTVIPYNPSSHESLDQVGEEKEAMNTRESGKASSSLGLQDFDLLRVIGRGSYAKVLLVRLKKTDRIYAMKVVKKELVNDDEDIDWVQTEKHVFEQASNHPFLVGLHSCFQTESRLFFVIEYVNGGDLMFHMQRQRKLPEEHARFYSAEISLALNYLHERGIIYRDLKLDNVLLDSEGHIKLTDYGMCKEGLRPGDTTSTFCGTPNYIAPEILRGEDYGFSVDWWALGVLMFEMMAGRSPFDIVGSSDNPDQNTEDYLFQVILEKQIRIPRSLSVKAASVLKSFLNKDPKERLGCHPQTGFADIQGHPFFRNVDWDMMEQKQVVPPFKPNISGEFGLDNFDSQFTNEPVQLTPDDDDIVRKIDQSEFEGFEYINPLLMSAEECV
Assay: PKCι IC50 IMAP fluorescence polarisation assay, full-length enzyme, 150 μM ATP
Format: biochemical
Details: read-out: IC50 in IMAP assay against full length PKCi at 150 μM ATP
Procedure, shortened: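 IMAP fluorescence polarisation kinase assay: 15 pM baculovirus-expressed human PKCiota with 100 nM FAM-pseudosubstrate peptide and 150 μM ATP, 1 h at 25 °C. IMAP detection reagent then 2 h at 25 °C before FP measurement. Inhibition referenced to no-compound and no-enzyme controls for IC50 fitting.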

Row | Compound | IC50
1 | CC1(C)CNCC[C@H]1Nc1nc(-c2ccnc(Nc3cc4ccccn4n3)c2)nc2cncc(C3CCC3)c12 [Example 379, {5-Cyclobutyl-2-[2-(pyrazolo[1,5-a]pyridin-2-ylamino)-pyridin-4-yl]-pyrido[3,4-d]pyrimidin-4-yl}-((R)-3,3-dimethyl-piperidin-4-yl)-amine] | < 0.1 µM
2 | CC1(C)CNCC[C@@H]1Nc1nc(-c2ccnc(Nc3cc4ccccn4n3)c2)nc2cncc(C3CCC3)c12 [Example 380, {5-Cyclobutyl-2-[2-(pyrazolo[1,5-a]pyridin-2-ylamino)-pyridin-4-yl]-pyrido[3,4-d]pyrimidin-4-yl}-((S)-3,3-dimethyl-piperidin-4-yl)-amine] | < 0.1 µM
3 | CC1(C)CNCC[C@@H]1Nc1nc(-c2ccnc(Nc3cc(F)ccn3)c2)nc2cncc(C3CCC3)c12 [Example 382, {5-Cyclobutyl-2-[2-(4-fluoro-pyridin-2-ylamino)-pyridin-4-yl]-pyrido[3,4-d]pyrimidin-4-yl}-((S)-3,3-dimethyl-piperidin-4-yl)-amine] | < 0.1 µM
4 | COc1cccc(Nc2cc(-c3nc(N[C@H]4CCNCC4(C)C)c4c(C5CCC5)cncc4n3)ccn2)n1 [Example 383, {5-Cyclobutyl-2-[2-(6-methoxy-pyridin-2-ylamino)-pyridin-4-yl]-pyrido[3,4-d]pyrimidin-4-yl}-((S)-3,3-dimcthyl-piperidin-4-yl)-amine] | < 0.1 µM
5 | CN(c1nc(-c2ccnc3[nH]c(-c4ncccc4F)cc23)nc2cncc(C3CC3)c12)[C@H]1CCNCC1(C)C [Example 384, {5-Cyclopropyl-2-[2-(3-fluoro-pyridin-2-yl)-1H-pyrrolo[2,3-b]pyridin-4-yl]-pyrido[3,4-d]pyrimidin-4-yl}-((S)-3,3-dimethyl-piperidin-4-yl)-methyl-amine] | < 0.1 µM
6 | CN(c1nc(-c2ccnc3[nH]c(-c4cccnc4)cc23)nc2cncc(C3CC3)c12)[C@H]1CCNCC1(C)C [Example 385, [5-Cyclopropyl-2-(2-pyridin-3-yl-1H-pyrrolo[2,3-b]pyridin-4-yl)-pyrido[3,4-d]pyrimidin-4-yl]-((S)-3,3-dimethyl-piperidin-4-yl)-methyl-amine] | < 0.1 µM
7 | CC1(C)CNCC[C@@H]1Nc1nc(-c2ccnc(Nc3ccccn3)c2)nc2cncc(C3CCC3)c12 [Example 388, {5-Cyclobutyl-2-[2-(pyridin-2-ylamino)-pyridin-4-yl]-pyrido[3,4-d]pyrimidin-4-yl}-((S)-3,3-dimethyl-piperidin-4-yl)-amine] | < 0.1 µM
8 | CC1(C)CNCC[C@@H]1Nc1nc(-c2ccnc(Nc3ccc(F)cn3)c2)nc2cncc(C3CCC3)c12 [Example 389, {5-Cyclobutyl-2-[2-(5-fluoropyridin-2-ylamino)-pyridin-4-yl]-pyrido[3,4-d]pyrimidin-4-yl}-((S)-3,3-dimethyl-piperidin-4-yl)-amine] | < 0.1 µM
9 | CC1(C)CNCC[C@@H]1Nc1nc(-c2ccnc(Nc3ncccc3F)c2)nc2cncc(C3CC3)c12 [Example 390, {5-Cyclopropyl-2-[2-(3-fluoro-pyridin-2-ylamino)-pyridin-4-yl]-pyrido[3,4-d]pyrimidin-4-yl}-((S)-3,3-dimethyl-piperidin-4-yl)-amine] | < 0.1 µM
10 | CC1(C)CNCC[C@@H]1Nc1nc(-c2ccnc(Nc3ncc(F)cc3F)c2)nc2cncc(C3CC3)c12 [Example 391, {5-Cyclopropyl-2-[2-(3,5-difluoro-pyridin-2-ylamino)-pyridin-4-yl]-pyrido[3,4-d]pyrimidin-4-yl}-((S)-3,3-dimethyl-piperidin-4-yl)-amine] | < 0.1 µM
11 | CC1(C)CNCC[C@@H]1Nc1nc(-c2ccnc(Nc3cc(F)ccn3)c2)nc2cncc(C3CC3)c12 [Example 392, {5-Cyclopropyl-2-[2-(4-fluoro-pyridin-2-ylamino)-pyridin-4-yl]-pyrido[3,4-d]pyrimidin-4-yl}-((S)-3,3-dimethyl-piperidin-4-yl)-amine] | < 0.1 µM
12 | CC1(C)CNCC[C@@H]1Nc1nc(-c2ccnc(Nc3ccc(F)cn3)c2)nc2cncc(C3CC3)c12 [Example 393, {5-Cyclopropyl-2-[2-(5-fluoro-pyridin-2-ylamino)-pyridin-4-yl]-pyrido[3,4-d]pyrimidin-4-yl}-((S)-3,3-dimethyl-piperidin-4-yl)-amine] | < 0.1 µM
13 | CC1(C)CNCC[C@@H]1Nc1nc(-c2ccnc3[nH]c(-c4ccccc4F)cc23)nc2cncc(C3CC3)c12 [Example 394, {5-Cyclopropyl-2-[2-(2-fluoro-phenyl)-1H-pyrrolo[2,3-b]pyridin-4-yl]-pyrido[3,4-d]pyrimidin-4-yl}-((S)-3,3-dimethyl-piperidin-4-yl)-amine] | < 0.1 µM
14 | CC1(C)CNCC[C@@H]1Nc1nc(-c2ccnc3[nH]c(-c4cccnc4)cc23)nc2cncc(C3CC3)c12 [Example 395, [5-Cyclopropyl-2-(2-pyridin-3-yl-1H-pyrrolo[2,3-b]pyridin-4-yl)-pyrido[3,4-d]pyrimidin-4-yl]-((S)-3,3-dimethyl-piperidin-4-yl)-amine] | < 0.1 µM
15 | CN(c1nc(-c2ccnc3[nH]c(-c4ccccc4F)cc23)nc2cncc(C3CC3)c12)[C@H]1CCNCC1(C)C [Example 396, {5-Cyclopropyl-2-[2-(2-fluoro-phenyl)-1H-pyrrolo[2,3-b]pyridin-4-yl]-pyrido[3,4-d]pyrimidin-4-yl}-((S)-3,3-dimethyl-piperidin-4-yl)-methyl-amine] | < 0.1 µM
